US20220168325A1, “METHODS TO PROMOTE CEREBRAL BLOOD FLOW IN THE BRAIN” (THE UNIVERSITY OF VERMONT, priority 2019, published 2022)

Columns and labels:
[1] = system: capillary-to-arteriole electrical signaling; assay: Ex vivo capillary-parenchymal arteriole (CaPA) preparation: upstream arteriolar dilation to 10 mM K+ on capillaries; design: species or system C57BL/6J mouse
Source text: Ex Vivo Capillary-Parenchymal Arteriole Preparation. The capillary-parenchymal arteriole (CaPA) preparation was obtained by dissecting parenchymal arterioles arising from the M1 region of the middle cerebral artery, leaving the attached capillary bed intact, as reported recently (Longden et al, “Capillary K^+-Sensing Initiates Retrograde Hyperpolarization to Increase Local Cerebral Blood Flow,” Nat. Neurosci. 20:717-726 (2017), which is hereby incorporated by reference in its entirety). Precapillary arteriolar segments were cannulated on glass micropipettes on a Living Systems Instrumentation pressure myograph, with one end occluded by a tie. The ends of the capillaries were then sealed by the downward pressure of an overlying glass micropipette. Application of pressure (40 mmHg) to the cannulated parenchymal arteriole segment in this preparation pressurized the entire tree and induced myogenic tone in the parenchymal arteriole segment. With this preparation, 10 mM K^+ was applied onto capillaries by pressure ejection from a glass micropipette (tip diameter, ˜5 μm) attached to a Picospritzer III (Parker) at ˜5 psi for 18 s. Luminal diameter in parenchymal arterioles was acquired in one region of the arteriolar segment at 15 Hz using IonWizard 6.2 edge-detection software (IonOptix). Changes in arteriolar diameter were calculated from the average luminal diameter measured over the last 10 s of stimulation and were normalized to the maximum dilatory responses in 0 mM Ca^2+ bath solution at the end of each experiment.
Capillary Kir2.1 channels sense increases in [K^+]o caused by increased neuronal activity and initiate a hyperpolarizing signal. By virtue of strong electrical coupling between endothelial cells, retrograde hyperpolarization ascends to upstream feeding arterioles to enhance cerebral blood flow to the site of signal initiation (Longden et al, “Capillary K^+-Sensing Initiates Retrograde Hyperpolarization to Increase Local Cerebral Blood Flow,” Nat. Neurosci. 20:717-726 (2017), which is hereby incorporated by reference in its entirety). […] During this lag period, Kir2.1 currents recorded in the perforated-patch configuration declined steadily (τdecay≈12 minutes), but K^+-mediated retrograde dilatory signaling remained intact until Kir2.1 currents reached ˜50% of their maximal amplitude (FIG. 7C).

[2] = system: K+-evoked capillary hyperemia; assay: In vivo two-photon imaging of K+-evoked capillary RBC flux through cranial window; design: species or system C57BL/6J mouse
Kir2.1 channel [3] = molecular target: T1, Kir2.1 channel (Mus musculus, UniProt P35561); assay: Patch-clamp recording of Kir2.1 currents in freshly isolated brain capillary endothelial cells (cECs); conditions: perforated patch
T1 sequence (P35561 1-428): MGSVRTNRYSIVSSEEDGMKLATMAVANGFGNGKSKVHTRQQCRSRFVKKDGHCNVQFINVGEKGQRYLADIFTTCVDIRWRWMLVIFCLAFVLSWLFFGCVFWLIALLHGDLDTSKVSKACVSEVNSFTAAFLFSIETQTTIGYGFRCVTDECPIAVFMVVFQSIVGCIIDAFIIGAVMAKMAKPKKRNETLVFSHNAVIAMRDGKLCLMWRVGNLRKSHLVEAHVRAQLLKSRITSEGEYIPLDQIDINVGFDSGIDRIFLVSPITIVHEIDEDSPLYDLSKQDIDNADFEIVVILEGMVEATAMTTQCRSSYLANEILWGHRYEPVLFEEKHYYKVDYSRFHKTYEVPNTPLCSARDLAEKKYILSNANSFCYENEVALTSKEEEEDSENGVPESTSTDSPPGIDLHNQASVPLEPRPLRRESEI

functional hyperemia = assay: Whisker stimulation-induced functional hyperemia in vivo (laser Doppler flowmetry, somatosensory cortex); design: species or system TgNotch3^WT and TgNotch3^R169C mice; conditions: exogenous PIP2 (diC16-PIP2 systemically via femoral artery catheter), CADASIL model mice
Kir2.1 channel [4] = molecular target: T1, Kir2.1 channel; assay: Patch-clamp Ba2+-sensitive Kir2.1 current in cECs from transgenic mice; assay type: cell-based, TgNotch3^WT and TgNotch3^R169C mice; design: freshly isolated capillary endothelial cells from TgNotch3^WT and TgNotch3^R169C brains; endogenous in cells; host or cells: freshly isolated brain capillary endothelial cells from TgNotch3^WT and TgNotch3^R169C mice (FVB/N background); conditions: CADASIL cECs
intracerebral arterioles = assay: Luminal diameter of isolated pressurized parenchymal arterioles; design: species or system TgNotch3^WT and TgNotch3^R169C mice; conditions: bath soluble PIP2 10 μM; TgNotch3^WT and TgNotch3^R169C arterioles
Method: FIGS. 21A and 21B show typical recordings of luminal diameter of pressurized parenchymal arterioles from TgNotch3^WT (control) and TgNotch3^R169C (CADASIL) mice. NS309 and U46619 are used to test the ability of the arteriole to dilate and constrict, respectively. Bath application of soluble PIP2 at 10 μM has little effect on arteriole diameter.

[5] = system: capillary-to-arteriole electrical signaling; assay: Ex vivo CaPA preparation from transgenic mice: arteriolar tone and dilation to capillary 10 mM K+
[6] = bath-applied PGE2 1 μM or carbachol 10 μM

Row | Compound | Lag phase (X0) before inhibition of capillary-mediated arteriolar dilation [1, 6] | Time constant of postplateau exponential decay of K+-induced dilation (τdecay) [1, 6] | K+-induced upstream arteriolar vasodilation ([1]; bath-applied PGE2 1 μM or carbachol 10 μM, 10 mM K+ on capillaries) | Parenchymal arteriolar diameter ([1]; carbachol, FIGS. 8A-8D) | K+-induced increase in capillary RBC flux ([2]; carbachol 0.6 μg/kg intravascular, t=20 minutes after injection, 10 mM K+, saline controls 52±12%) [%] | Baseline capillary RBC flux (before K+ application) ([2]; carbachol 0.6 μg/kg, over 30 minutes) | Kir2.1 current decline at X0 (12 minutes) (Kir2.1 channel [3]; carbachol 10 μM) [%] | Time constant of exponential decay of Kir2.1 current (τdecay) (Kir2.1 channel [3]; PGE2 2 μM or carbachol 10 μM applied at t0) [min] | Functional hyperemia in vivo (functional hyperemia) | Kir2-mediated current (Kir2.1 channel [4]; exogenous soluble PIP2 10 μM (diC16-PIP2, 20 minutes pre-incubation)) | Kir current (Kir2.1 channel [4]; intracellular soluble PIP2 via patch pipette (10 μM diC8-PIP2)) | Arteriole diameter (intracerebral arterioles) | Upstream arteriole response to 10 mM K+ on capillaries ([5]; CaPA from endothelial specific Kir2.1^-/- (Kir channel deficient) mice, HB-EGF or soluble PIP2 present) | Arteriolar dilation in response to capillary stimulation with 10 mM K+ ([5]; TgNotch3^R169C CaPA, 1 mM 4-AP, 30 ng/mL HB-EGF bath, or exogenous PIP2 bath)
1 | C[N+](C)(C)CCOC(N)=O [carbachol] | ≈ 12 minutes | ≈ 13 minutes | similarly suppressed | minimally altered parenchymal arteriolar diameter | 10±6 | did not change | ~58 | 8 |  |  |  |  |  | 
2 | phosphatidylinositol 4,5-bisphosphate [soluble PIP2] |  |  |  |  |  |  |  |  | restored | increased Kir2-mediated current in cECs from CADASIL mice to values observed in control groups | counteracted the reduction in Kir current | little effect | absence of effect | restored
